Results taken from patent publication US6087355A, “Cephalosporin antibiotics” (Microcide Pharmaceuticals, Inc., priority 1996, dated 2000).
Structures can show the parent of a compound that is named as a salt.

Tests used:
Assay in all cases: In vitro MIC, agar dilution
Type in all cases: cell-based
[1] = system: S. aureus Col(Meth^R)(lac^-); settings: for MIC: Staphylococcus aureus, read-out: minimum inhibitory concentration (MIC)
Outline: (§1)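 Two-fold dilutions (128 to ≤0.25 μg/mL, in duplicate) were poured into Mueller-Hinton agar. Log-phase broth cultures were spot-inoculated at about 10^4 cfu per spot and incubated 35-36°C for 16-20 hours; the MIC was the lowest concentration inhibiting growth. Col is a high-level PBP2a producer; Col 8A is its isogenic PBP2a-lacking partner.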

[2] = system: S. aureus Col8A(Meth^S)(lac^-); settings: S. aureus Col8A(Meth^S)(lac^-); for MIC: Staphylococcus aureus, read-out: minimum inhibitory concentration (MIC)
Outline: as §1

[3] = system: S. aureus ATCC 13709(Meth^S); settings: for MIC: Staphylococcus aureus, ATCC13709, S. aureus ATCC 13709(Meth^S), read-out: minimum inhibitory concentration (MIC); for minimum inhibitory concentration (MIC): S. aureus ATCC 13709(Meth^S)
Outline: (§2)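 Agar dilution, Mueller-Hinton; drug 128 → ≤0.25 μg/mL two-fold, duplicates. Inoculum ~10^4 cfu/spot (log phase). 35-36 °C, 16-20 h. MIC = lowest conc. with no growth.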

E. faecalis ATCC 29212 = settings: for MIC: Enterococcus faecalis, ATCC29212, read-out: minimum inhibitory concentration (MIC)
Outline: as §2

[4] = system: S. aureus Spain #356(Meth^R); settings: for MIC: Staphylococcus aureus, read-out: minimum inhibitory concentration (MIC)
Outline: as §2

E. faecium VanA(Van^R) = settings: for MIC: Enterococcus faecium, read-out: minimum inhibitory concentration (MIC)
Outline: as §2

E. faecium A491(Amp^R) = settings: for MIC: Enterococcus faecium, read-out: minimum inhibitory concentration (MIC)
Outline: as §2

[5] = system: S. aureus PC1(Meth^S)(lac^+); settings: for MIC: Staphylococcus aureus, read-out: minimum inhibitory concentration (MIC)
Outline: as §2

P. aeruginosa ATCC 27853 = settings: for MIC: Pseudomonas aeruginosa, ATCC27853, read-out: minimum inhibitory concentration (MIC)
Outline: as §2

E. coli ATCC 25992 = settings: for MIC: Escherichia coli, ATCC25992, read-out: minimum inhibitory concentration (MIC)
Outline: as §2

S. aureus ATCC 29213 = settings: for MIC: Staphylococcus aureus, ATCC29213, read-out: minimum inhibitory concentration (MIC)
Outline: as §2

[6] = system: S. aureus 76(Meth^R)(lac^+); settings: for MIC: Staphylococcus aureus, read-out: minimum inhibitory concentration (MIC)
Outline: as §2

[7] = system: S. haemolyticus 05(Meth^R); settings: for MIC: Staphylococcus haemolyticus, read-out: minimum inhibitory concentration (MIC)
Outline: as §2

E. faecalis VanB(Van^R) = settings: for MIC: Enterococcus faecalis, read-out: minimum inhibitory concentration (MIC)
Outline: as §2

E. faecium ATCC 35667 = settings: for MIC: Enterococcus faecium, ATCC35667, read-out: minimum inhibitory concentration (MIC)
Outline: as §2

[8] = system: S. aureus ATCC 33593(Meth^R); settings: for MIC: Staphylococcus aureus, ATCC33593, read-out: minimum inhibitory concentration (MIC)
Outline: as §2

Compound	MIC [1] [µg/mL]	MIC [2] [µg/mL]	MIC [3] [µg/mL]	MIC (E. faecalis ATCC 29212) [µg/mL]	MIC [4] [µg/mL]	MIC (E. faecium VanA(Van^R)) [µg/mL]	MIC (E. faecium A491(Amp^R)) [µg/mL]	MIC [5] [µg/mL]	MIC (P. aeruginosa ATCC 27853) [µg/mL]	MIC (E. coli ATCC 25992) [µg/mL]	MIC (S. aureus ATCC 29213) [µg/mL]	MIC [6] [µg/mL]	MIC [7] [µg/mL]	MIC (E. faecalis VanB(Van^R)) [µg/mL]	MIC (E. faecium ATCC 35667) [µg/mL]	MIC [8] [µg/mL]	also measured
Nc1nc(/C(=N/O)C(=O)N[C@@H]2C(=O)N3C(C(=O)O)=C(Sc4ccncc4CSC4CCNCC4)CS[C@H]23)c(Cl)s1 [Cmpd 52, (7R)-7-[(Z)-2-(2-amino-5-chlorothiazol-4-yl)-2-(hydroxyimino)acetamido]-3-(3-(piperidine-4-ylthiomethyl)pyrid-4-ylthio)-3-cephem-4-carboxylate, trifluoroacetic acid salt]	2	0.25	0.5	≤ 0.06	2	1	4	0.5	> 32	2	0.5	2	2	0.13	≤ 0.06	2	
Nc1nc(/C(=N/O)C(=O)N[C@@H]2C(=O)N3C(C(=O)O)=C(Sc4ccncc4CSCCNC=O)CS[C@H]23)c(Cl)s1 [Cmpd 63, (7R)-7-[(Z)-2-(2-amino-5-chlorothiazol-4-yl)-2-(hydroxyimino)acetamido]-3-(3-(N-formylaminoethylthiomethyl)pyrid-4-ylthio)-3-cephem-4-carboxylate, trifluoroacetic acid salt]	2	0.13	0.25	0.13	4	1	16	0.25	> 32	16	0.25	2	2	0.25	0.5	2	
N=CNCCCSCc1cnccc1SC1=C(C(=O)O)N2C(=O)[C@@H](NC(=O)/C(=N\O)c3nc(N)sc3Cl)[C@H]2SC1 [Cmpd 34, (7R)-7-[(Z)-2-(2-amino-5-chlorothiazol-4-yl)-2-(hydroxyimino)acetamido]-3-(3-(3-N-formamidoylaminopropylthiomethyl)pyrid-4-ylthio)-3-cephem-4-carboxylate, trifluoroacetic acid salt]	1	≤ 0.06	≤ 0.06	≤ 0.06	1	0.5	4	0.13	> 32	4	≤ 0.06	1	2	≤ 0.06	0.25	1	
NCCSCc1nnsc1SC1=C(C(=O)O)N2C(=O)[C@@H](NC(=O)/C(=N\O)c3csc(N)n3)[C@H]2SC1 [Cmpd 38, (7R)-7-[(Z)-2-(aminothiazol-4-yl)-2-(hydroxyimino)acetamido]-3-(4-(2-aminoethylthiomethyl)-1,2,3-thiadiazol-5-ylthio)-3-cephem-4-carboxylate, trifluoroacetic acid salt]	1	0.13	0.13	0.13	1	2	> 32	0.25	> 32	2	0.13	1	2	0.13	1	1	
O=C(Cc1ccccc1)N[C@@H]1C(=O)N2C(C(=O)O)=C(Sc3snnc3CSC3CCNC3)CS[C@H]12 (stereo partly drawn) [Cmpd 6, (7R)-7-[(phenylacetyl)amino]-3-[4-(3-pyrrolidinothiomethyl)-1,2,3-thiadiazol-5-ylthio]-3-cephem-4-carboxylate, trifluoroacetic acid salt]	2	0.13	≤ 0.06	0.5	8	8	> 32	0.5	> 32	> 32	0.25	8	16	8	2	8	
N=CNCCSCc1cnccc1SC1=C(C(=O)O)N2C(=O)[C@@H](NC(=O)/C(=N\O)c3csc(N)n3)[C@H]2SC1.O=C(O)C(F)(F)F [Cmpd 25, (7R)-7-[(Z)-2-(aminothiazol-4-yl)-2-(hydroxyimino)acetamido]-3-(3-(N-formamidoyl)aminoethylthiomethylpyrid-4-ylthio)-3-cephem-4-carboxylate, trifluoroacetic acid salt]																	minimum inhibitory concentration (MIC) [1]: 1 µg/mL; minimum inhibitory concentration (MIC) [2]: 0.25 µg/mL; minimum inhibitory concentration (MIC) [3]: 0.25 µg/mL; minimum inhibitory concentration (MIC) (E. faecalis ATCC 29212): 0.13 µg/mL; minimum inhibitory concentration (MIC) [4]: 2 µg/mL; minimum inhibitory concentration (MIC) (E. faecium VanA(Van^R)): 2 µg/mL; minimum inhibitory concentration (MIC) (E. faecium A491(Amp^R)): 32 µg/mL; minimum inhibitory concentration (MIC) [5]: 0.25 µg/mL; minimum inhibitory concentration (MIC) (P. aeruginosa ATCC 27853): > 32 µg/mL; minimum inhibitory concentration (MIC) (E. coli ATCC 25992): 4 µg/mL; minimum inhibitory concentration (MIC) (S. aureus ATCC 29213): 0.25 µg/mL; minimum inhibitory concentration (MIC) [6]: 2 µg/mL; minimum inhibitory concentration (MIC) [7]: 2 µg/mL; minimum inhibitory concentration (MIC) (E. faecalis VanB(Van^R)): 0.13 µg/mL; minimum inhibitory concentration (MIC) (E. faecium ATCC 35667): 1 µg/mL; minimum inhibitory concentration (MIC) [8]: 1 µg/mL
CNCCNCCSCc1nnsc1SC1=C(C(=O)O)N2C(=O)[C@@H](NC(=O)/C(=N\O)c3nc(N)sc3Cl)[C@H]2SC1.O=C(O)C(F)(F)F [Cmpd 22, (7R)-7-[(Z)-2-(2-amino-5-chlorothiazol-4-yl)-2-(hydroxyimino)acetamido]-3-[(methylaminoethylaminoethylthiomethyl)-1,2,3-thiadiazol-5-ylthio]-3-cephem-4-carboxylate, trifluoroacetic acid salt]																	minimum inhibitory concentration (MIC) [1]: 2 µg/mL; minimum inhibitory concentration (MIC) [2]: 0.5 µg/mL; minimum inhibitory concentration (MIC) [3]: 1 µg/mL; minimum inhibitory concentration (MIC) (E. faecalis ATCC 29212): 0.13 µg/mL; minimum inhibitory concentration (MIC) [4]: 2 µg/mL; minimum inhibitory concentration (MIC) (E. faecium VanA(Van^R)): 2 µg/mL; minimum inhibitory concentration (MIC) (E. faecium A491(Amp^R)): 16 µg/mL; minimum inhibitory concentration (MIC) [5]: 1 µg/mL; minimum inhibitory concentration (MIC) (P. aeruginosa ATCC 27853): > 32 µg/mL; minimum inhibitory concentration (MIC) (E. coli ATCC 25992): 8 µg/mL; minimum inhibitory concentration (MIC) (S. aureus ATCC 29213): 0.25 µg/mL; minimum inhibitory concentration (MIC) [6]: 2 µg/mL; minimum inhibitory concentration (MIC) [7]: 2 µg/mL; minimum inhibitory concentration (MIC) (E. faecalis VanB(Van^R)): 0.5 µg/mL; minimum inhibitory concentration (MIC) (E. faecium ATCC 35667): 1 µg/mL; minimum inhibitory concentration (MIC) [8]: 2 µg/mL
CN(C)C(=O)[C@@H]1CC(SCc2cnccc2SC2=C(C(=O)O)N3C(=O)[C@@H](NC(=O)/C(=N\O)c4nc(N)sc4Cl)[C@H]3SC2)CN1 (stereo partly drawn) [Cmpd 55, (7R)-7-[(Z)-2-(2-amino-5-chlorothiazol-4-yl)-2-(hydroxyimino)acetamido]-3-(3-(5S-5-N,N-dimethylcarboxamidopyrrolidin-3-ylthiomethyl)pyrid-4-ylthio)-3-cephem-4-carboxylate, trifluoroacetic acid salt]	4	0.5	0.25	0.25	4	2	16	1	> 32	8	0.5	4	4	0.5	0.5	2	
